# Target: T1, CFTR (Homo sapiens, UniProt P13569)
# T1 construct: endogenous in cells; host or cells: T84 human colonic cells (ECACC)
# Assay: T84 assay (FLIPR membrane potential dye, forskolin/IBMX-stimulated CFTR channel activity)
# Type: cell-based
# Settings: imidazole and triazole-containing compounds (Tables 13, 14, 14′), read-out: IC50 (μM) (T84 assay)
# Procedure: (§1) For example, Human colonic T84 cells can be acquired from the European Collection of Cell Cultures (ECACC) and grown in standard culture conditions as described by the supplier. On the day before assay 25,000 T84 cells per well are plated into standard black walled, clear bottom 384-well assay plates in standard growth medium consisting of DMEM:F12 with 10% FBS and incubated overnight. On the day of the assay the plates are washed using a standard assay buffer (HBSS with 10 mM Hepes) and incubated for 15 minutes in serum free cell culture medium before the addition of a commercially available membrane potential sensitive fluorescent dye (FLIPRRed membrane potential dye, Molecular Devices Corporation). T84 cells are incubated with the FLIPRRed membrane potential dye for 45 minutes in the presence and absence of test compound before being transferred to a commercially available fluorescence imaging plate reader (FLIPR384, Molecular Devices Corporation). Fluorescence levels are monitored continuously every second for 150 seconds; after an initial 10 second baseline, CFTR channel activity is stimulated through the addition of 10 μM forskolin in the presence of 100 μM of the phosphodiesterase inhibitor iso-butyl-methylxanthine (IBMX). Addition of the forskolin leads to the activation of intracellular adenylyl cylase 1, elevating cAMP levels and results in the phosphorylation and opening of CFTR anion channels. CFTR channel opening causes chloride ion efflux and subsequent depolarization of the cells, which is measured by an increase in fluorescence. CFTR inihibitor compounds prevent cell depolarization and the associatred increase in fluorescence.
# as §1, with “Human colonic” for “For example, Human colonic”, “T84 cells are acquired from” for “T84 cells can be acquired from”, “(ECACC) and are grown in” for “(ECACC) and grown in”, “10 μM Forskolin in the” for “10 μM forskolin in the”, “fluorescence. CFTR inhibitor compounds prevent” for “fluorescence. CFTR inihibitor compounds prevent”, “and the associated increase in” for “and the associatred increase in”
# T1 sequence (P13569 whole entry): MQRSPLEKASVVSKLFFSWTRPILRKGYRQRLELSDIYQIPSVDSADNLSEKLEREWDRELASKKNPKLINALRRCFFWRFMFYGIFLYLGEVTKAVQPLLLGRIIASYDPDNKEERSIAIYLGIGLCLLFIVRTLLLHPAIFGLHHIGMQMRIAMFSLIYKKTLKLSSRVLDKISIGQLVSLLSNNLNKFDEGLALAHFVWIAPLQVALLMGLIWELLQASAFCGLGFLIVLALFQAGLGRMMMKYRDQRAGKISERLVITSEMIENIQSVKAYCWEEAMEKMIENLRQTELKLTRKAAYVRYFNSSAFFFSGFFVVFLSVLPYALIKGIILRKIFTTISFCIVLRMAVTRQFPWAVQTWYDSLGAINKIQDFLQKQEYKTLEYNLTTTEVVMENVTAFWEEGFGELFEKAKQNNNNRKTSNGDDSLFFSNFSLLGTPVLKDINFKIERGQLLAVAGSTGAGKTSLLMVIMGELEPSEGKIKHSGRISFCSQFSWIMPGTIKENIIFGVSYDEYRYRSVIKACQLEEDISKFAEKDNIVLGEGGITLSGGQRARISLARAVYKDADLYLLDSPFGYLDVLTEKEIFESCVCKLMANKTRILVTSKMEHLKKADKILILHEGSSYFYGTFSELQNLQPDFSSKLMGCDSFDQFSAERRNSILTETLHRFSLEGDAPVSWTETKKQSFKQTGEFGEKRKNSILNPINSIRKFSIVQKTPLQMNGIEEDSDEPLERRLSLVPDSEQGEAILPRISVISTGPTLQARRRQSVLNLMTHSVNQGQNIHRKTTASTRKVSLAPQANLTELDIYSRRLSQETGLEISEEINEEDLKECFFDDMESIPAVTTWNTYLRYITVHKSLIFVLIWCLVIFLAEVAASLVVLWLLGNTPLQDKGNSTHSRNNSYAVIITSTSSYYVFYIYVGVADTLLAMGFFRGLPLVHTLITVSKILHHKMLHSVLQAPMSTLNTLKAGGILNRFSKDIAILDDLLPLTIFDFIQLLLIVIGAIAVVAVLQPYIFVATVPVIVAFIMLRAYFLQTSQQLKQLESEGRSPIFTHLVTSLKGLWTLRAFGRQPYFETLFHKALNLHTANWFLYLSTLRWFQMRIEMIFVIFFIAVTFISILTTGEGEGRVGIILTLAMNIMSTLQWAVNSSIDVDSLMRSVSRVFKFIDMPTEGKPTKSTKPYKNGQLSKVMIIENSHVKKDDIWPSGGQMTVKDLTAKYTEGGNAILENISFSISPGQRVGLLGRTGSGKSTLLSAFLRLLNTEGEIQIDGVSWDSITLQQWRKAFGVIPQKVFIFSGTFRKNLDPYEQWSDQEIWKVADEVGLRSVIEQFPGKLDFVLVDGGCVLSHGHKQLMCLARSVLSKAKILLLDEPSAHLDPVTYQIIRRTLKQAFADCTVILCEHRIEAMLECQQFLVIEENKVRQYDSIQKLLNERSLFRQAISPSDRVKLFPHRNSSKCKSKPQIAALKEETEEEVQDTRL
row,IC50 [µM],SMILES
1,23.8,"O=C(NCc1ccccc1C(F)(F)F)c1ncn(-c2cc(Cl)c(O)c(Cl)c2)n1 [35i, 1-(3,5-dichloro-4-hydroxyphenyl)-N-(2-(trifluoromethyl)benzyl)-1H-1,2,4-triazole-3-carboxamide]"
2,5.61,"O=C(NCc1cccc(N2CCCCC2)c1)c1ncn(-c2cc(Cl)c(O)c(Cl)c2)n1 [38i, 1-(3,5-dichloro-4-hydroxyphenyl)-N-(3-(piperidin-1-yl)benzyl)-1H-1,2,4-triazole-3-carboxamide]"
3,2.51,"O=C(NCc1ccc(-c2ccc(C(F)(F)F)cn2)cc1)c1ncn(-c2cc(Cl)c(O)c(Cl)c2)n1 [39i, 1-(3,5-dichloro-4-hydroxyphenyl)-N-(4-(5-(trifluoromethyl)pyridin-2-yl)benzyl)-1H-1,2,4-triazole-3-carboxamide]"
4,22.4,"O=C(NCc1ccccc1OC(F)F)c1ncn(-c2cc(Cl)c(O)c(Cl)c2)n1 [41i, 1-(3,5-dichloro-4-hydroxyphenyl)-N-(2-(difluoromethoxy)benzyl)-1H-1,2,4-triazole-3-carboxamide]"
5,15.9,"O=C(NCc1ccc(F)c(F)c1)c1ncn(-c2cc(Cl)c(O)c(Cl)c2)n1 [42i, 1-(3,5-dichloro-4-hydroxyphenyl)-N-(3,4-difluorobenzyl)-1H-1,2,4-triazole-3-carboxamide]"
6,13.3,"O=C(NCc1cc(F)c(F)c(F)c1)c1ncn(-c2cc(Cl)c(O)c(Cl)c2)n1 [43i, 1-(3,5-dichloro-4-hydroxyphenyl)-N-(3,4,5-trifluorobenzyl)-1H-1,2,4-triazole-3-carboxamide]"
7,8.22,"O=C(NCc1ccc(N2CCCCC2)cc1)c1ncn(-c2cc(Cl)c(O)c(Cl)c2)n1 [45i, 1-(3,5-dichloro-4-hydroxyphenyl)-N-(4-(piperidin-1-yl)benzyl)-1H-1,2,4-triazole-3-carboxamide]"
8,28.6,O=C(NCc1cccc(-n2cccn2)c1)c1ncn(-c2cc(Cl)c(O)c(Cl)c2)n1 [46i]
9,12.6,"O=C(NCc1cccc(Cl)c1)c1ncn(-c2cc(Cl)c(O)c(Cl)c2)n1 [47i, N-(3-chlorobenzyl)-1-(3,5-dichloro-4-hydroxyphenyl)-1H-1,2,4-triazole-3-carboxamide]"
10,8.67,"O=C(NCc1ccc(Cl)cc1)c1ncn(-c2cc(Cl)c(O)c(Cl)c2)n1 [48i, N-(4-chlorobenzyl)-1-(3,5-dichloro-4-hydroxyphenyl)-1H-1,2,4-triazole-3-carboxamide]"
11,26.7,"O=C(c1ccccc1)C1CCN(C(=O)c2ncn(-c3cc(Cl)c(O)c(Cl)c3)n2)CC1 [61i, (4-benzoylpiperidin-1-yl)(1-(3,5-dichloro-4-hydroxyphenyl)-1H-1,2,4-triazol-3-yl)methanone]"
12,1.28,"Cc1noc(C)c1CCNC(=O)c1ncn(-c2cc(Cl)c(O)c(Cl)c2)n1 [74i, 1-(3,5-dichloro-4-hydroxyphenyl)-N-(2-(3,5-dimethylisoxazol-4-yl)ethyl)-1H-1,2,4-triazole-3-carboxamide]"
13,3.01,"CC(C)(C)CCN(Cc1cccc(OC(F)(F)F)c1)C(=O)c1ncn(-c2cc(Cl)c(O)c(Cl)c2)n1 [77i, 1-(3,5-dichloro-4-hydroxyphenyl)-N-(3,3-dimethylbutyl)-N-(3-(trifluoromethoxy)benzyl)-1H-1,2,4-triazole-3-carboxamide]"
14,2.23,"CC(C)(C)CCN(Cc1cccc(C(F)(F)F)c1)C(=O)c1ncn(-c2cc(Cl)c(O)c(Cl)c2)n1 [79i, 1-(3,5-dichloro-4-hydroxyphenyl)-N-(3,3-dimethylbutyl)-N-(3-(trifluoromethyl)benzyl)-1H-1,2,4-triazole-3-carboxamide]"

# Same assay, conditions: oxadiazole-containing compounds (a series), average of at least 2 runs unless annotated n = 1, read-out: IC50
row,IC50 [µM],SMILES
1,17.8,"O=C(NCc1ccccc1)c1nc(-c2cc(Br)c(O)c(Br)c2)no1 [33a, N-benzyl-3-(3,5-dibromo-4-hydroxyphenyl)-1,2,4-oxadiazole-5-carboxamide]"
2,18.3,"O=C(Nc1ccc(Oc2ccc(C(F)(F)F)cc2)cc1)c1nc(-c2cc(Br)c(O)c(Br)c2)no1 [34a, 3-(3,5-dibromo-4-hydroxyphenyl)-N-(4-(4-(trifluoromethyl)phenoxy)phenyl)-1,2,4-oxadiazole-5-carboxamide]"
3,19.2,"O=C(NCc1ccccc1F)c1nc(-c2cc(Br)c(O)c(Br)c2)no1 [35a, 3-(3,5-dibromo-4-hydroxyphenyl)-N-(2-fluorobenzyl)-1,2,4-oxadiazole-5-carboxamide]"
4,21.4,"O=C(NCc1ccccc1C(F)(F)F)c1nc(-c2cc(Br)c(O)c(Br)c2)no1 [36a, 3-(3,5-dibromo-4-hydroxyphenyl)-N-(2-(trifluoromethyl)benzyl)-1,2,4-oxadiazole-5-carboxamide]"
5,23,"O=C(NCc1ccc(C(F)(F)F)cc1)c1nc(-c2cc(Br)c(O)c(Br)c2)no1 [37a, 3-(3,5-dibromo-4-hydroxyphenyl)-N-(4-(trifluoromethyl)benzyl)-1,2,4-oxadiazole-5-carboxamide]"
6,2.52,"CN(Cc1cccc(OC(F)(F)F)c1)C(=O)c1nc(-c2cc(Br)c(O)c(Br)c2)no1 [38a, 3-(3,5-dibromo-4-hydroxyphenyl)-N-methyl-N-(3-(trifluoromethoxy)benzyl)-1,2,4-oxadiazole-5-carboxamide]"
7,26.7,"O=C(O)COc1c(Br)cc(-c2noc(C(=O)N3CCC(Cc4ccccc4)CC3)n2)cc1Br [39a, 2-(4-(5-(4-benzylpiperidine-1-carbonyl)-1,2,4-oxadiazol-3-yl)-2,6-dibromophenoxy) acetic acid]"
8,27.1,"O=C(NCc1ccc(Cl)cc1)c1nc(-c2cc(Br)c(O)c(Br)c2)no1 [40a, N-(4-chlorobenzyl)-3-(3,5-dibromo-4-hydroxyphenyl)-1,2,4-oxadiazole-5-carboxamide]"
9,3.35,"C=CCN(Cc1cccc(C(F)(F)F)c1)C(=O)c1nc(-c2cc(Br)c(O)c(Br)c2)no1 [59a, N-allyl-3-(3,5-dibromo-4-hydroxyphenyl)-N-(3-(trifluoromethyl)benzyl)-1,2,4-oxadiazole-5-carboxamide]"
10,12.6,"CCN(Cc1cccc(C(F)(F)F)c1)C(=O)c1nc(-c2cc(Br)c(O)c(Br)c2)no1 [60a, 3-(3,5-Dibromo-4-hydroxyphenyl)-N-ethyl-N-(3-(trifluormethyl)benzyl)-1,2,4-oxadiazole-5-carboxamide]"
11,18.6,"CN(Cc1ccccc1)C(=O)c1nc(-c2cc(Cl)c(O)c(Cl)c2)no1 [62a, N-benzyl-3-(3,5-dichloro-4-hydroxyphenyl)-N-methyl-1,2,4-oxadiazole-5-carboxamide]"
12,11.7,"O=C(c1noc(-c2cc(Br)c(O)c(Br)c2)n1)N1CCC(Cc2ccccc2)CC1 [66a, (4-benzylpiperidin-1-yl)(5-(3,5-dibromo-4-hydroxyphenyl)-1,2,4-oxadiazol-3-yl)methanone]"
13,10.3,"COC(=O)C1CCN(C(=O)COc2c(Br)cc(-c3noc(C(=O)N4CCC(Cc5ccccc5)CC4)n3)cc2Br)CC1 [68a, methyl 1-(2-(4-(5-(4-benzylpiperidine-1-carbonyl)-1,2,4-oxadiazol-3-yl)-2,6-dibromophenoxy)acetyl)piperidine-4-carboxylate]"
14,18.9,"O=C(COc1c(Br)cc(-c2noc(C(=O)N3CCC(Cc4ccccc4)CC3)n2)cc1Br)N(CCO)CCO [71a, 2-(4-(5-(4-benzylpiperidine-1-carbonyl)-1,2,4-oxadiazol-3-yl)-2,6-dibromophenoxy)-N,N-bis(2-hydroxyethyl)acetamide]"
15,2.6,"O=C(NCc1cccc(C(F)(F)F)c1)c1noc(-c2cc(Cl)c(O)c(Cl)c2)n1 [74a, 5-(3,5-dichloro-4-hydroxyphenyl)-N-(3-(trifluoromethyl)benzyl)-1,2,4-oxadiazole-3-carboxamide]"
16,2.09,"O=C(NCc1cccc(OC(F)(F)F)c1)c1noc(-c2cc(Cl)c(O)c(Cl)c2)n1 [75a, 5-(3,5-dichloro-4-hydroxyphenyl)-N-(3-(trifluoromethoxy)benzyl)-1,2,4-oxadiazole-3-carboxamide]"
17,11.2,"O=C(c1noc(-c2cc(Cl)c(O)c(Cl)c2)n1)N1CCC(Cc2ccccc2)CC1 [78a, (4-benzylpiperidin-l-yl)(5-(3,5-dichloro-4-hydroxyphenyl)-1,2,4-oxadiazol-3-yl)methanone]"
18,17.5,"O=C(NCc1ccc(Oc2ccccc2)cc1)c1noc(-c2cc(Cl)c(O)c(Cl)c2)n1 [79a, 5-(3,5-dichloro-4-hydroxyphenyl)-N-(4-phenoxybenzyl)-1,2,4-oxadiazole-3-carboxamide]"

# Source: US20100144733A1, “Compounds, compositions and methods comprising heteroaromatic derivatives” (Institute for OneWorld Health, priority 2008, published 2010)
